How the values were obtained:
Test in all cases: relative viability (nuclei count vs DMSO), 5 days (fraction); higher = more cells survive
[1] = compound: C1COCCN1C2=NC(=NC3=C2OC4=C3C=CC=N4)C5=CC(=CC=C5)NC(=O)C6=CN=C(C=C6)N + CC(=O)c1c(C)c2cnc(Nc3ccc(N4CCNCC4)cn3)nc2n(C2CCCC2)c1=O [Palbociclib] (partner 0.5 µM)
How it was run: (§1)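 Dosing by pin tool came one day after lung cancer cell lines were seeded in 1536-well plates, using either one drug or a fixed anchor-drug dose plus five library-drug doses (not always all listed) in √10 steps. After 5 days, nuclei were counted on 4× images. Relative viability is treated-well nuclei count divided by vehicle-well nuclei count, and values are medians of duplicate plates.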

SGI-1776 + Phenformin = compound: CN1CCC(CNc2ccc3ncc(-c4cccc(OC(F)(F)F)c4)n3n2)CC1 [SGI-1776] + N=C(N)NC(=N)NCCc1ccccc1 [Phenformin] (partner 250 µM)
How it was run: as §1

SGI-1776 + Olaparib = compound: CN1CCC(CNc2ccc3ncc(-c4cccc(OC(F)(F)F)c4)n3n2)CC1 [SGI-1776] + O=C(c1cc(Cc2n[nH]c(=O)c3ccccc23)ccc1F)N1CCN(C(=O)C2CC2)CC1 [Olaparib] (partner 8 µM)
How it was run: as §1

Entinostat + Phenformin = compound: Nc1ccccc1NC(=O)c1ccc(CNC(=O)OCc2cccnc2)cc1 [Entinostat] + N=C(N)NC(=N)NCCc1ccccc1 [Phenformin] (partner 250 µM)
How it was run: as §1

Cell Line | relative viability ([1]; first compound 0.02 µM) | relative viability ([1]; first compound 0.06325 µM) | relative viability ([1]; first compound 0.2 µM) | relative viability ([1]; first compound 0.6325 µM) | relative viability ([1]; first compound 2 µM) | relative viability (SGI-1776 + Phenformin; first compound 0.08 µM) | relative viability (SGI-1776 + Phenformin; first compound 0.8 µM) | relative viability (SGI-1776 + Phenformin; first compound 2.53 µM) | relative viability (SGI-1776 + Phenformin; first compound 8 µM) | relative viability (SGI-1776 + Olaparib; first compound 0.08 µM) | relative viability (SGI-1776 + Olaparib; first compound 0.8 µM) | relative viability (SGI-1776 + Olaparib; first compound 2.53 µM) | relative viability (SGI-1776 + Olaparib; first compound 8 µM) | relative viability (Entinostat + Phenformin; first compound 0.02 µM) | relative viability (Entinostat + Phenformin; first compound 0.06325 µM) | relative viability (Entinostat + Phenformin; first compound 0.2 µM) | relative viability (Entinostat + Phenformin; first compound 0.6325 µM) | relative viability (Entinostat + Phenformin; first compound 2 µM)
LC-2-ad | 0.518 | 0.484 | 0.469 | 0.526 | 0.396 | 0.572 | 0.554 | 0.667 | 0.362 | 0.755 | 0.776 | 0.756 | 0.696 | 0.568 | 0.566 | 0.579 | 0.365 | 0.208
NCI-H441 | 0.208 | 0.178 | 0.198 | 0.175 | 0.198 | 0.759 | 0.769 | 0.82 | 0.663 | 0.569 | 0.521 | 0.608 | 0.491 | 0.679 | 1.03 | 0.757 | 0.397 | 0.184
NCI-H1915 | 0.516 | 0.573 | 0.512 | 0.613 | 0.48 | 0.37 | 0.368 | 0.382 | 0.357 | 0.256 | 0.265 | 0.248 | 0.23 | 0.375 | 0.346 | 0.372 | 0.261 | 0.256
NCI-H1299 | – | – | – | – | – | – | – | – | – | 1.01 | 0.962 | 1.05 | 0.897 | – | – | – | – | –
HCC-827 | 0.392 | 0.537 | 0.491 | 0.538 | 0.34 | 0.412 | 0.424 | 0.459 | 0.301 | 0.694 | 0.615 | 0.739 | 0.658 | 0.397 | 0.381 | 0.395 | 0.357 | 0.275
EMC-BAC-2 | 0.54 | 0.545 | 0.501 | 0.498 | 0.456 | 0.517 | 0.475 | 0.469 | 0.419 | 0.504 | 0.506 | 0.509 | 0.452 | 0.523 | 0.533 | 0.449 | 0.416 | 0.293
NCI-H596 | – | – | – | – | – | 0.724 | 0.688 | 0.701 | 0.704 | 0.662 | 1 | 0.82 | 0.696 | 0.752 | 0.74 | 0.823 | 0.734 | 0.554
NCI-H1792 | 0.661 | 0.74 | 0.605 | 0.463 | 0.384 | 0.335 | 0.257 | 0.135 | 0.257 | 0.623 | 0.533 | 0.429 | 0.453 | 0.318 | 0.441 | 0.315 | 0.101 | 0.17
NCI-H2009 | 0.195 | 0.224 | 0.144 | 0.223 | 0.202 | 0.407 | 0.394 | 0.381 | 0.3 | 0.714 | 0.769 | 0.688 | 0.623 | 0.466 | 0.499 | 0.468 | 0.418 | 0.304
NCI-H2347 | 0.443 | 0.413 | 0.4 | 0.48 | 0.441 | 0.652 | 0.44 | 0.333 | 0.396 | 0.606 | 0.674 | 0.632 | 0.614 | 0.378 | 0.243 | 0.234 | 0.181 | 0.151
SW 900 | 0.52 | 0.555 | 0.525 | 0.548 | 0.345 | 0.731 | 0.563 | 0.538 | 0.348 | 0.792 | 0.886 | 1.15 | 0.636 | 0.653 | 0.759 | 0.686 | 0.369 | 0.306
NCI-H1563 | – | – | – | – | – | 0.694 | 0.595 | 0.63 | 0.548 | – | – | – | – | 0.76 | 0.646 | 0.714 | 0.669 | 0.607
SK-MES-1 | 0.314 | 0.329 | 0.294 | 0.276 | 0.312 | 0.643 | 0.593 | 0.53 | 0.493 | 0.772 | 0.744 | 0.664 | 0.347 | 0.614 | 0.699 | 0.721 | 0.657 | 0.504
NCI-H3122 | 0.182 | 0.187 | 0.164 | 0.186 | 0.16 | 0.371 | 0.328 | 0.309 | 0.278 | 0.688 | 0.697 | 0.62 | 0.647 | 0.411 | 0.395 | 0.389 | 0.321 | 0.22
NCI-H2085 | 0.405 | 0.502 | 0.455 | 0.445 | 0.438 | 0.852 | 0.8 | 0.795 | 0.58 | 0.758 | 0.797 | 0.926 | 0.794 | 0.716 | 0.774 | 0.706 | 0.461 | 0.375
PC-14 | 0.482 | 0.562 | 0.562 | 0.284 | 0.189 | 0.573 | 0.648 | 0.579 | 0.151 | 0.285 | 0.367 | 0.305 | 0.114 | 0.761 | 0.61 | 0.662 | 0.309 | 0.076
NCI-H1355 | 0.371 | 0.385 | 0.423 | 0.609 | 0.354 | 0.451 | 0.423 | 0.401 | 0.3 | 0.749 | 0.695 | 0.78 | 0.687 | 0.48 | 0.439 | 0.502 | 0.368 | 0.332
Calu-6 | – | – | – | – | – | – | – | – | – | 0.61 | 0.559 | 0.642 | 0.474 | – | – | – | – | –
EBC-1 | – | – | – | – | – | – | – | – | – | 0.74 | 0.732 | 0.687 | 0.573 | – | – | – | – | –
NCI-H1703 | – | – | – | – | – | – | – | – | – | 0.338 | 0.394 | 0.387 | 0.12 | – | – | – | – | –
IA-LM | – | – | – | – | – | – | – | – | – | 0.97 | 0.785 | 0.919 | 0.846 | – | – | – | – | –
NCI-H1648 | 0.252 | 0.252 | 0.255 | 0.212 | 0.222 | – | – | – | – | 0.648 | 0.763 | 0.761 | 1.21 | – | – | – | – | –
A549 | – | – | – | – | – | 0.122 | 0.148 | 0.11 | 0.155 | 0.39 | 0.395 | 0.389 | 0.312 | 0.166 | 0.207 | 0.197 | 0.169 | 0.101
